Reference: patent US20230285490A1, “ADDITIVE TO FISH FOOD COMPRISING TWO PLANT EXTRACTS AND A SEAWEED (PALMARIA PALMATA) EXTRACT AS TASTE MASKING AGENT; AND A METHOD TO COMBAT/ELIMINATE INFESTATIONS OF CALIGUS BY STERILIZATION OF FEMALE INDIVIDUALS IN FISH FARMING CENTERS AND MARINE CONCESSIONS” (priority 2020, published 2023)

Tested on: ovigerous Caligus females
Assay: In vitro plate bioassay on swimming behavior and survival of ovigerous Caligus females, comparison with emamectin benzoate (Example 7)
Conditions: 2 hours, 14° C., sea water
From the text: However, 75% living females slowly swam, having a slow response to stimulus and adhered to experimentation vessels. • Between 87 and 100% parasites survived in control with solvents (methanol and DMSO) used to prepare each product and in sea water. Under these conditions females actively swam and readily responded to stimulus as bubbles of the aeration system or manipulation with tweezers.

emamectin benzoate
Affected and dead Total (%) (15 ovigerous females): 27%
Affected ovigerous females (15 ovigerous females): 1
Vivas (living ovigerous females) (15 ovigerous females): 11
dead ovigerous females (15 ovigerous females): 3
Affected and dead Total (%) (15 ovigerous females, listed as emamectin benzoate): 25%
remaining living females with slow/erratic swimming: 75%
